Test results as given in patent US6462055B2, “Alpha-methylbenzyl-containing thiourea inhibitors of herpes viruses containing a phenylenediamine group” (Wyeth, priority 1998, dated 2002).
In brackets after ≈: the same amount, converted by molar mass.

Test system: HCMV recombinant mutant virus (RV145)
Assay: microbe, parasite or virus in culture
Assay type: cell-based, human cytomegalovirus
Settings: HCMV
From the text: Microtiter plate assay. Ninety-six well plate cultures of human foreskin fibroblasts are infected in the presence of inhibitor compound with a HCMV recombinant mutant virus whose genome contains the prokaryotic beta-glucuronidase gene (Jefferson, R. A., S. M. Burgess, and D. Hirsh. 1986. Beta-glucuronidase from Escherichia coli as a gene fusion marker. Proc. Natl. Acad. Sci. USA 83:8447-8451) whose expression is controlled by a viral promoter. An example of such a virus is RV145 (Jones, T. R., V. P. Muzithras, and Y. Gluzman. 1991. Replacement mutagenesis of the human cytomegalovirus genome: US10 and US11 gene products are nonessential. J. Virol. 65:5860-5872). Since it is under the control of a viral promoter, beta-glucuronidase expression is an indirect indicator of growth and replication of HCMV in this assay. At 96 hours post-infection, the infected cell lysates are prepared (using 50 mM sodium phosphate [pH7.0]containing 0.1% Triton X-100 and 0.1% sarkosyl) and assayed for beta-glucuronidase activity using a substrate for the enzyme which when cleaved yields either a product which can be measured […] in a spectrophotometer or fluorescently in a microfluorimeter. Examples of such substrates are p-nitrophenyl-beta-D-glucuronide and methylumbelliferylglucuronide, respectively. The presence of an antiviral compound is indicated by the reduced expression of the HCMV genome resident beta-glucuronidase gene, compared to the absence of inhibitor. […] Data from this assay generated using varying amounts of inhibitor compound is also used to estimate the IC50 of an inhibitor compound.

Compound	IC50 ug/ml HCMV [µg/mL]
COc1cc(OC)c(NC(=S)Nc2ccc(NC(=O)c3ccccc3C)cc2)cc1Cl [Example 114]	5 (≈ 11 µM)
COc1cc(OC)c(NC(=S)Nc2ccc(NC(=O)c3ccccc3OC(C)=O)cc2)cc1Cl [Example 115]	8 (≈ 16 µM)
COc1cc(OC)c(NC(=S)Nc2ccc(NC(=O)c3ccc(F)cc3)cc2)cc1Cl [Example 116]	3 (≈ 6.52 µM)
COc1cc(OC)c(NC(=S)Nc2ccc(NC(=O)c3cccc(F)c3)cc2)cc1Cl [Example 117]	3 (≈ 6.52 µM)
CN(C)c1cc(CCNC(=S)Nc2ccc(NC(=O)c3ccccc3F)cc2)cc(C(F)(F)F)c1 [Example 653]	>0.5
O=C(Nc1ccc(NC(=S)NCCSc2ccccc2)cc1)c1ccccc1F [Example 656]	>0.5
Cc1cc(CCNC(=S)Nc2ccc(NC(=O)c3ccccc3F)cc2)ccc1N(C)C [Example 673]	>0.5
O=C(Nc1ccc(NC(=S)NCc2ccc(F)c(Cl)c2)cc1)c1ccccc1F [Example 677]	>0.5
O=C(Nc1ccc(NC(=S)NCCSc2cccc(Br)c2)cc1)c1ccccc1F [Example 680]	>0.5
CC1CN(c2ccc(CNC(=S)Nc3ccc(NC(=O)c4ccccc4F)cc3)cc2C(F)(F)F)CCN1 (stereo not shown) [Example 687]	>0.5
O=C(Nc1ccc(NC(=S)NCCOc2ccc(Br)cc2)cc1)c1ccccc1F [Example 695]	>3
O=C(Nc1ccc(NC(=S)NCCc2ccc(Cl)c(Cl)c2)cc1)c1ccccc1F [Example 719]	>0.5
COc1ccccc1C(=O)Nc1ccc(NC(=S)NC(C)c2ccc(F)cc2)cc1 (stereo not shown) [Example 752]	>0.5
CCC(NC(=S)Nc1ccc(NC(=O)c2ccccc2F)cc1)c1ccc(F)cc1 (stereo not shown) [Example 771]	0.4 (≈ 0.94 µM)
O=C(Nc1ccc(NC(=S)NC(c2ccccc2)c2ccc(F)cc2)cc1)c1ccccc1F (stereo not shown) [Example 772]	0.35 (≈ 0.739 µM)
C[C@H](NC(=S)Nc1ccc(NC(=O)c2nccc3ccccc23)cc1)c1ccc(Br)cc1 [Example 1107]	8.1 (≈ 16 µM)
C[C@H](NC(=S)Nc1ccc(NC(=O)c2cc3ccccc3cn2)cc1)c1ccc(Br)cc1 [Example 1108]	2.3 (≈ 4.55 µM)

Same assay, conditions: Human betaherpesvirus 5, read-out: IC50 ug/ml HCMV, HCMV

Compound	IC50 [µg/mL]
O=C(Nc1ccc(NC(=S)NCc2cccc(I)c2)cc1)c1ccccc1F [Example 661]	> 0.5
O=C(Nc1ccc(NC(=S)NCc2cc(C(F)(F)F)ccc2F)cc1)c1ccccc1F [Example 669]	> 0.5
O=C(Nc1ccc(NC(=S)NCc2ccc(F)c(F)c2)cc1)c1ccccc1F [Example 672]	> 0.5
O=C(Nc1ccc(NC(=S)NCCOc2ccc(I)cc2)cc1)c1ccccc1F [Example 696]	> 3
O=C(Nc1ccc(NC(=S)Nc2ccc(Cl)cc2)cc1)c1ccccc1F [Example 946, N-{4-[3-(4-Chloro-phenyl)-thioureido]-phenyl}-2-fluoro-benzamide]	> 10

Test system: HSV-1
Assay: HSV Antiviral (ELISA) Assay in Vero cells
Assay type: cell-based, herpes simplex virus type 1
Settings: HSV-1, Vero cells
Outline: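 Viral replication was quantified by cell-fixed ELISA for HSV glycoprotein D, using a β-galactosidase reporter and fluorogenic umbelliferyl substrate, about 24 h after HSV-1 infection (MOI 0.006) of Vero cells. Compounds, at several concentrations, were added 30 min pre-infection. IC50 was derived from fluorescence relative to the compound-free signal.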

Compound	IC50 (ug/ml) HSV [µg/mL]
COc1cc(OC)c(NC(=S)Nc2ccc(NC(=O)c3ccccc3C)cc2)cc1Cl [Example 114]	0.3 (≈ 0.658 µM)
COc1cc(OC)c(NC(=S)Nc2ccc(NC(=O)c3ccccc3OC(C)=O)cc2)cc1Cl [Example 115]	4 (≈ 8 µM)
COc1cc(OC)c(NC(=S)Nc2ccc(NC(=O)c3ccc(F)cc3)cc2)cc1Cl [Example 116]	2 (≈ 4.35 µM)
COc1cc(OC)c(NC(=S)Nc2ccc(NC(=O)c3cccc(F)c3)cc2)cc1Cl [Example 117]	0.3 (≈ 0.652 µM)
CN(C)c1cc(CCNC(=S)Nc2ccc(NC(=O)c3ccccc3F)cc2)cc(C(F)(F)F)c1 [Example 653]	>10
O=C(Nc1ccc(NC(=S)NCCSc2ccccc2)cc1)c1ccccc1F [Example 656]	5 (≈ 11.7 µM)
Cc1cc(CCNC(=S)Nc2ccc(NC(=O)c3ccccc3F)cc2)ccc1N(C)C [Example 673]	7 (≈ 15.5 µM)
O=C(Nc1ccc(NC(=S)NCc2ccc(F)c(Cl)c2)cc1)c1ccccc1F [Example 677]	>10
O=C(Nc1ccc(NC(=S)NCCSc2cccc(Br)c2)cc1)c1ccccc1F [Example 680]	>10
CC1CN(c2ccc(CNC(=S)Nc3ccc(NC(=O)c4ccccc4F)cc3)cc2C(F)(F)F)CCN1 (stereo not shown) [Example 687]	1.2 (≈ 2.2 µM)
O=C(Nc1ccc(NC(=S)NCCOc2ccc(Br)cc2)cc1)c1ccccc1F [Example 695]	>10
O=C(Nc1ccc(NC(=S)NCCc2ccc(Cl)c(Cl)c2)cc1)c1ccccc1F [Example 719]	>10
COc1ccccc1C(=O)Nc1ccc(NC(=S)NC(C)c2ccc(F)cc2)cc1 (stereo not shown) [Example 752]	>10
CCC(NC(=S)Nc1ccc(NC(=O)c2ccccc2F)cc1)c1ccc(F)cc1 (stereo not shown) [Example 771]	>10
O=C(Nc1ccc(NC(=S)NC(c2ccccc2)c2ccc(F)cc2)cc1)c1ccccc1F (stereo not shown) [Example 772]	>10

Same assay, conditions: Human alphaherpesvirus 1; HSV-1, Vero cells; read-out: IC50 (ug/ml) HSV

Compound	IC50 [µg/mL]
O=C(Nc1ccc(NC(=S)NCc2cccc(I)c2)cc1)c1ccccc1F [Example 661]	> 10
O=C(Nc1ccc(NC(=S)NCc2cc(C(F)(F)F)ccc2F)cc1)c1ccccc1F [Example 669]	> 10
O=C(Nc1ccc(NC(=S)NCc2ccc(F)c(F)c2)cc1)c1ccccc1F [Example 672]	> 10
O=C(Nc1ccc(NC(=S)NCCOc2ccc(I)cc2)cc1)c1ccccc1F [Example 696]	10 (≈ 18.7 µM)
O=C(Nc1ccc(NC(=S)Nc2ccc(Cl)cc2)cc1)c1ccccc1F [Example 946, N-{4-[3-(4-Chloro-phenyl)-thioureido]-phenyl}-2-fluoro-benzamide]	> 10

Test system: VZV strain Ellen
Assay: VZV Antiviral (ELISA) Assay in human foreskin fibroblast cells
Assay type: cell-based, varicella-zoster virus
Settings: not given
Outline: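 HFF cells infected overnight with VZV Ellen at MOI <0.1, mixed with uninfected cells, were seeded with compound and grown 3 days at 37° C in DMEM/2% FBS. Viral glycoprotein II was detected by ELISA with β-galactosidase-linked secondary; IC50 from fluorescence versus no-compound wells.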

Compound	IC50 (ug/ml) VZV [µg/mL]
COc1cc(OC)c(NC(=S)Nc2ccc(NC(=O)c3ccccc3C)cc2)cc1Cl [Example 114]	>10
COc1cc(OC)c(NC(=S)Nc2ccc(NC(=O)c3ccccc3OC(C)=O)cc2)cc1Cl [Example 115]	4 (≈ 8 µM)
COc1cc(OC)c(NC(=S)Nc2ccc(NC(=O)c3ccc(F)cc3)cc2)cc1Cl [Example 116]	>10
COc1cc(OC)c(NC(=S)Nc2ccc(NC(=O)c3cccc(F)c3)cc2)cc1Cl [Example 117]	>10
C[C@H](NC(=S)Nc1ccc(NC(=O)c2nccc3ccccc23)cc1)c1ccc(Br)cc1 [Example 1107]	0.05 (≈ 0.0989 µM)
C[C@H](NC(=S)Nc1ccc(NC(=O)c2cc3ccccc3cn2)cc1)c1ccc(Br)cc1 [Example 1108]	0.05 (≈ 0.0989 µM)

Same assay, conditions: 10 ug/ml

Compound	% inhibition 10 ug/ml VZV [%]
COc1cc(OC)c(NC(=S)Nc2ccc(NC(=O)c3ccccc3C)cc2)cc1Cl [Example 114]	17
COc1cc(OC)c(NC(=S)Nc2ccc(NC(=O)c3ccccc3OC(C)=O)cc2)cc1Cl [Example 115]	98
COc1cc(OC)c(NC(=S)Nc2ccc(NC(=O)c3ccc(F)cc3)cc2)cc1Cl [Example 116]	0
COc1cc(OC)c(NC(=S)Nc2ccc(NC(=O)c3cccc(F)c3)cc2)cc1Cl [Example 117]	15
